The values below come from the supplement of paper PMC10307832.

Common to all, as to assay: relative viability (nuclei count vs DMSO), 5 days (fraction); higher = more cells survive
Compound in the test “Decitabine + Dasatinib”: Nc1ncn([C@H]2C[C@H](O)[C@@H](CO)O2)c(=O)n1 [Decitabine] + Cc1nc(Nc2ncc(C(=O)Nc3c(C)cccc3Cl)s2)cc(N2CCN(CCO)CC2)n1 [Dasatinib] (partner 0.075 µM)
An outline of the steps: (§1)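 Cells from lung cancer lines were seeded into 1536-well plates and, one day later, dosed by pin tool. Treatments were either a single drug or a fixed dose of an anchor drug with five library-drug doses (not always all listed) in √10 steps. After 5 days, nuclei were stained in a one-step fixation (final 0.05% Triton X-100, 1% formaldehyde, 1 ug/ml Hoechst) and counted on 4× images, and relative viability is the treated-to-vehicle nuclei ratio, as the median of duplicate plates.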

Compound in the test “Cediranib + Linsitinib”: COc1cc2c(Oc3ccc4[nH]c(C)cc4c3F)ncnc2cc1OCCCN1CCCC1 [Cediranib] + C[C@]1(O)C[C@@H](c2nc(-c3ccc4ccc(-c5ccccc5)nc4c3)c3c(N)nccn32)C1 [Linsitinib] (partner 1 µM)
Put shortly:
as §1

Compound in the test “Cediranib + Olaparib”: COc1cc2c(Oc3ccc4[nH]c(C)cc4c3F)ncnc2cc1OCCCN1CCCC1 [Cediranib] + O=C(c1cc(Cc2n[nH]c(=O)c3ccccc23)ccc1F)N1CCN(C(=O)C2CC2)CC1 [Olaparib] (partner 8 µM)
Put shortly:
as §1

Compound in test [1]: O=C(C[C@H]1NCCC[C@@H]1O)Cn1cnc2cc(Br)c(Cl)cc2c1=O (racemic) [Halofuginone] + CC1(C)CCC(c2ccc(Cl)cc2)=C(CN2CCN(c3ccc(C(=O)NS(=O)(=O)c4ccc(N[C@H](CCN5CCOCC5)CSc5ccccc5)c(S(=O)(=O)C(F)(F)F)c4)cc3)CC2)C1 [Navitoclax] (partner 0.5 µM)
Put shortly:
as §1

For UMC-11, the relative viability in the test with Decitabine + Dasatinib (first compound 0.04 µM) turned out to be 0.496; in the test with Decitabine + Dasatinib (first compound 0.1265 µM), 0.442; in the test with Decitabine + Dasatinib (first compound 0.4 µM) it was 0.293; with Decitabine + Dasatinib (first compound 1.265 µM), 0.335; with Decitabine + Dasatinib (first compound 4 µM), 0.327; with Cediranib + Linsitinib (first compound 0.04 µM), 1.06. For the same cell line, the relative viability in the test with Cediranib + Linsitinib (first compound 0.1265 µM) stood at 1.02; with Cediranib + Linsitinib (first compound 0.4 µM), 0.955; with Cediranib + Linsitinib (first compound 1.265 µM) it was 0.957; in the test with Cediranib + Linsitinib (first compound 4 µM) it was 0.934; with Cediranib + Olaparib (first compound 0.04 µM), 0.373; with Cediranib + Olaparib (first compound 0.1265 µM), 0.335. Moreover, the relative viability with Cediranib + Olaparib (first compound 0.4 µM) is 0.371; with Cediranib + Olaparib (first compound 1.265 µM), 0.388; with Cediranib + Olaparib (first compound 4 µM) it was 0.406; in test [1] (first compound 0.001 µM), 0.325; in test [1] (first compound 0.003162 µM), 0.314; in test [1] (first compound 0.01 µM), 0.324. Also, the relative viability in test [1] (first compound 0.03162 µM) amounted to 0.26; in test [1] (first compound 0.1 µM), 0.138.
